In patent US9884862B2, “Pyridopyrimidinedione derivatives” (Novartis AG, priority 2014, dated 2018):
Read-outs that look alike come from different tables or passages of the source.

What was measured:
CFTR-Y122X = CFTR-Y122X assay (dual reporter isogenic Hek293 cell lines, Renilla luminescence readthrough); type: cell-based; settings: for Emax / AC50 / Amax: nonsense mutation suppression, 24 h incubation, tested up to 100 μM; for Emax / Amax: 100% = 14 mM paromomycin; for Emax: read-out: Amax
From the text: Activity of compounds of the present invention was examined in recombinant, dual reporter isogenic Hek293 cell lines (“CFTR-Y122X assay”). The engineered reporter constructs contained the 18 bp sequence stretch corresponding to a common Y122X PTC mutation in CFTR class I mutant patients (see Sermet-Gaudelus, BMC Medicine, 2007, 5(5)). Instead of a tyrosine (Y) in position 122 of the CFTR protein a TGA stop codon interrupts the open reading frame (Y122X) of the corresponding mRNA. This TGA stop codon triplet (followed by the pyrimidine base cytosine) is permissive to aminoglycoside mediated translational readthrough which served as positive control for high throughput screening. A corresponding TAA stop codon variant and a wildtype non mutated construct was used for confirmation and counter screening. The CFTR sequence was sandwiched between an eGFP reporter, and a triple myc tag sequence fused to a full length Renilla reporter. All sequences, including an intron containing one positioned pre-eGFP (b-globin intron) were cloned in frame. The corresponding expression constructs were stably expressed in the isogenic HEK-R4 cell host (Invitrogen Incorp.) and selected by blasticidin resistance. The isogenic integration of the construct minimizes gene dose effects and improves assay reproducibility. Stably integrated single cell derived clones were selected and characterized for aminoglycoside mediated readthrough. […] Readthrough of Y122X accumulates an intracellular localized fusion protein approximately 65.5 kDa in size as controlled by western blot analysis and immunofluorescence using an anti-renilla antibody. The eGFP reporter pre-PTC mutation serves as visual control for genetic stability of the screening clones and minimizes protein degradation of small fusion protein amounts. In the assay, compound concentration was 10 μM. In miniaturized 1536 well format 2000 cells were dispensed in 4 μl/well and incubated for 24 h at 37° C., 5% CO2. 40 nl compounds were placed on the cells with control wells containing 1 ul Paramomycin and 14.4 mM final concentration. Compounds were incubated for 24 h. Renilla Glo substrate (2.5 ul) was added and plates were centrifuged and processed for luminescence measurement using various readers. Activity calculation was done using the equation: A1(%)=100*(S−NC)/(AC−NC) where AC, NC and S correspond to active controls (injection of Stimulation buffer=100% stimulation), neutral controls (buffer injection which Iloprost EC10) and screening samples (S). NC corresponds to 0% activity whereas AC is 100% activity (14 mM paromomycin). False positive artifacts were removed in confirmation and validation screening using the same assay format followed by counterscreening using the respective wildtype construct (w/o PTC mutation) cell model. Compounds were tested up to 100 μM compound concentration.

[1] = system: alpha-L-Iduronidase W402X in Hurler patient derived fibroblast cells; experiment: Hurler patient derived fibroblast cell cultures, restored alpha-L-iduronidase activity (W402X readthrough); type: cell-based, human; settings: 8 days incubation, highest concentration 20 uM; for Emax / AC50: Homo sapiens, Fibroblast, 192 h; for Emax / Amax: 14 mM paromomycin = 100% control; for Emax: read-out: Amax; for AC50: 8 point dilutions
From the text: Activity of compounds of the present invention was examined in patient derived fibroblast cells. The genotyped cells were derived from the Coriell Institute (# GM00798) and contain an in frame homozygous TGG to TAG change at nucleotide 1293 of exon 9 which results in a W402X mutation. The W402X mutation is one of the most common Hurler syndromes causing loss of function mutation. Between 60-70% of genotyped patients contain either the Q70X and/or the W402X in mutation and are classified as severe MPSI patients. This TAG stop codon triplet is permissive to aminoglycoside mediated translational readthrough which served as activity control for compound testing. Readthrough of W402X restores alpha-L-Iduronidase activity which results in removal of lysosomal accumulated Glycosaminoglycan's. Iduronidase expression could neither be detected by Taqman PCR© nor by enzyme activity or ELISA methods without compound stimulation. Compounds were tested in concentration response mode. Therefore 5000 patient cells/40 ul/well in 384 well plates were used. Compound dilutions were derived from freshly prepared 10 mM compound stock solutions. Highest concentration was 20 uM and subsequently diluted 1: 3.16 (8 point dilutions, n=4). Final DMSO concentration was below 0.5% and tested to be without effect on cell viability, growth and readthrough. Cells were incubated for 8 days with one cell media and compound exchange at day 3. Thereafter cell media was removed and cells were lysed (0.4 M Sodiumformate, 0.1% NaN3, 0.9% NaCl, 0.2% Triton, pH 3.5). Restored alpha-L-iduronidase activity in cell lysates was measured with the fluorescent 4-MU iduronide substrate (5 ul of 0.4 mM 4 Methylumbelliferyl alpha-L-iduronide/well) after 48 h incubation. Paromomycin was used as reference control (14 mM=100% control).

With `CCSc1nc2c(c(=O)n1-c1ccccc1)C(=O)C1CCCC1N2` (stereo not shown) [2-(ethylthio)-3-phenyl-5a,6,7,8,8a,9-hexahydro-3H-cyclopenta[5,6]pyrido[2,3-d]pyrimidine-4,5-dione] the “suppression relative to paromomycin reference activity” value (CFTR-Y122X; at the above dose ranges (up to 100 μM)) was “less than 5%”.

In the case of `CC(C)c1nc2c(c(=O)c3sccc3n2C)c(=O)n1-c1ccccc1` [Example 1.1, 2-isopropyl-9-methyl-3-phenylthieno[2′,3′:5,6]pyrido[2,3-d]pyrimidine-4,5(3H,9H)-dione], the Emax [1] is reported as 25%, the AC50 [1] is reported as 12 µM and the Emax (CFTR-Y122X; Homo sapiens, HEK293) is reported as 247%. For the same compound, the AC50 (CFTR-Y122X; Homo sapiens, HEK293) was 2.2 µM.

`Cc1cc2c(=O)c3c(=O)n(-c4ccccc4)c(C(C)C)nc3n(C)c2s1` [Example 1.2, 2-isopropyl-7,9-dimethyl-3-phenylthieno[3′,2′:5,6]pyrido[2,3-d]pyrimidine-4,5(3H,9H)-dione] showed an Amax [1] of 59%, an AC50 [1] of 17 µM and an Amax (CFTR-Y122X) of 249%. It also gave an AC50 (CFTR-Y122X) of 13 µM.

Compound `Cc1cc2c(=O)c3c(=O)n(-c4ccccc4)c(C4CCC4)nc3[nH]c2s1` [Example 2.1, 2-cyclobutyl-7-methyl-3-phenylthieno[3′,2′:5,6]pyrido[2,3-d]pyrimidine-4,5(3H,9H)-dione] has an Emax [1] of 42%, an AC50 [1] of 12 µM and an Emax (CFTR-Y122X; Homo sapiens, HEK293, 24 h) of 211%. It also gave an AC50 (CFTR-Y122X; Homo sapiens, HEK293, 24 h) of 12 µM.

`Cc1cc2c(=O)c3c(=O)n(-c4ccccc4)c(C4CCC4)nc3n(CCN)c2s1` [Example 2.2, 9-(2-aminoethyl)-2-cyclobutyl-7-methyl-3-phenylthieno[3′,2′:5,6]pyrido[2,3-d]pyrimidine-4,5(3H,9H)-dione] showed an Emax [1] of 162%, an AC50 [1] of 6.9 µM and an Emax (CFTR-Y122X; Homo sapiens, HEK293, 24 h) of 343%. It also gave an AC50 (CFTR-Y122X; Homo sapiens, HEK293, 24 h) of 4.3 µM.

In the case of `Cc1cc2c(s1)c(=O)c1c(=O)n(-c3ccccc3)c(C(C)C)nc1n2C` [Example 2.3, 2-isopropyl-7,9-dimethyl-3-phenylthieno[2′,3′:5,6]pyrido[2,3-d]pyrimidine-4,5(3H,9H)-dione], the Emax [1] is reported as 39%, the Emax (CFTR-Y122X; Homo sapiens, HEK293, 24 h) is reported as 169% and the AC50 (CFTR-Y122X; Homo sapiens, HEK293, 24 h) is reported as 14 µM.

`Cc1cc2c(=O)c3c(=O)n(-c4ccccc4)c(C(C)C)nc3n(C)c2s1` [Example 2.4, 2-isopropyl-7,9-dimethyl-3-phenylthieno[3′,2′:5,6]pyrido[2,3-d]pyrimidine-4,5(3H,9H)-dione] gave an Amax [1] of 13%, an AC50 (CFTR-Y122X; Homo sapiens, HEK293, 24 h) of 11 µM and an Amax (CFTR-Y122X) of 299%.

In the case of `CC(C)c1nc2[nH]c3cscc3c(=O)c2c(=O)n1-c1ccccc1` [Example 2.5, 2-isopropyl-3-phenylthieno[3′,4′:5,6]pyrido[2,3-d]pyrimidine-4,5(3H,9H)-dione], the Emax [1] is reported as 16%, the AC50 [1] is reported as 1.1 µM and the Emax (CFTR-Y122X; Homo sapiens, HEK293, 24 h) is reported as 113%. The AC50 (CFTR-Y122X; Homo sapiens, HEK293, 24 h) was 23 µM.

`CC(C)c1nc2[nH]c3sccc3c(=O)c2c(=O)n1-c1ccccc1` [Example 2.6, 2-isopropyl-3-phenylthieno[3′,2′:5,6]pyrido[2,3-d]pyrimidine-4,5(3H,9H)-dione] gave an Emax [1] of 6%, an Emax (CFTR-Y122X; Homo sapiens, HEK293, 24 h) of 97% and an AC50 (CFTR-Y122X; Homo sapiens, HEK293, 24 h) of 16 µM.

`CC(C)c1nc2[nH]c3ccsc3c(=O)c2c(=O)n1-c1ccccc1` [Example 2.7, 2-isopropyl-3-phenylthieno[2′,3′:5,6]pyrido[2,3-d]pyrimidine-4,5(3H,9H)-dione] showed an Emax [1] of 51%, an AC50 [1] of 10 µM and an Emax (CFTR-Y122X; Homo sapiens, HEK293, 24 h) of 332%. For the same compound, the AC50 (CFTR-Y122X; Homo sapiens, HEK293, 24 h) was 6.9 µM.

`Cc1cc2[nH]c3nc(C(C)C)n(-c4ccccc4)c(=O)c3c(=O)c2s1` [Example 2.8, 2-isopropyl-7-methyl-3-phenylthieno[2′,3′:5,6]pyrido[2,3-d]pyrimidine-4,5(3H,9H)-dione] showed an Emax [1] of 65%, an AC50 [1] of 10 µM and an Emax (CFTR-Y122X; Homo sapiens, HEK293, 24 h) of 225%. The AC50 (CFTR-Y122X; Homo sapiens, HEK293, 24 h) was 7.9 µM.

`Cc1cc2c(=O)c3c(=O)n(-c4ccccc4)c(C4CCC4)nc3n(C)c2s1` [Example 2.9, 2-cyclobutyl-7,9-dimethyl-3-phenylthieno[3′,2′:5,6]pyrido[2,3-d]pyrimidine-4,5(3H,9H)-dione] showed an Emax [1] of 96%, an AC50 [1] of 3.7 µM and an Emax (CFTR-Y122X; Homo sapiens, HEK293, 24 h) of 207%. For the same compound, the AC50 (CFTR-Y122X; Homo sapiens, HEK293, 24 h) was 2.2 µM.

`NC[C@@H]1O[C@H](O[C@H]2[C@@H](O)[C@H](O[C@@H]3[C@@H](O)[C@H](N)C[C@H](N)[C@H]3O[C@H]3O[C@H](CO)[C@@H](O)[C@H](O)[C@H]3N)O[C@@H]2CO)[C@H](N)[C@@H](O)[C@@H]1O` [paromomycin, reference compound] was tested, and the EC50 (CFTR-Y122X; Homo sapiens, HEK293, clone pursued for HTS assay development, read-out: EC50 (readthrough response of selected clone)) was 1500 µM.
